We go through 2 compounds from paper PMC12552937, “Kinetic mechanisms of electron bifurcation with electron transfer flavoprotein, NADH, butyryl-CoA dehydrogenase, and ferredoxin reveal a semiquinone cycle” (The Journal of Biological Chemistry, 2025).

SMILES strings stand for the structures.

Experiment [1] deals with T1, EtfAB (electron transfer flavoprotein) (Acidaminococcus fermentans, UniProt D2RIQ2).
T1 construct: gene Acfer_0555; recombinant from E. coli, pET-11a, no tag told; heterodimer with alpha-FAD (EtfA) and beta-FAD (EtfB); with Electron transfer flavoprotein subunit alpha
T1 sequence (D2RIQ2 1-263): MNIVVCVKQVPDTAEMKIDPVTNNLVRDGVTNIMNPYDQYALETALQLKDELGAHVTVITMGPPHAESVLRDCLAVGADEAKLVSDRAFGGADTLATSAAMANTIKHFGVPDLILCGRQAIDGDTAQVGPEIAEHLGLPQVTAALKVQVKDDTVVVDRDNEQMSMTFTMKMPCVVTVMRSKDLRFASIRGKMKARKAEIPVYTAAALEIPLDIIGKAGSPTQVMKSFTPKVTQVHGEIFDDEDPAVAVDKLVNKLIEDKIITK
T1 sequence (D2RIQ3 1-340 partner): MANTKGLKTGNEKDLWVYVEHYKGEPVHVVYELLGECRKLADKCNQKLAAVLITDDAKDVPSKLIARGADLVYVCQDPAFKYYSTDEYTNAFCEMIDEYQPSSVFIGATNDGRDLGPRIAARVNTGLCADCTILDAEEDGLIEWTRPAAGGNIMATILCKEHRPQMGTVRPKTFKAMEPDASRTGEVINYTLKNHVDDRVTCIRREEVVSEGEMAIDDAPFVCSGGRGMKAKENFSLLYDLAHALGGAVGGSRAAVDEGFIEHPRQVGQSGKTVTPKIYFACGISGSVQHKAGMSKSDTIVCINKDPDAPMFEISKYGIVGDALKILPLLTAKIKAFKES
Description: anaerobic stopped-flow, beta-FAD reduction and charge-transfer complex at […] nm. The format is biochemical. Particulars: 40 μM EtfAB + 40 μM NADH, 50 mM potassium phosphate pH 7.0, 4 °C; beta-FAD site.

The target in experiment [2] is T2, Bcd (butyryl-CoA dehydrogenase) (Acidaminococcus fermentans, UniProt D2RL84).
T2 construct: gene Acfer_1477; recombinant from E. coli, pET-11a, no tag told; homotetramer with one delta-FAD per subunit
T2 sequence (D2RL84 1-383): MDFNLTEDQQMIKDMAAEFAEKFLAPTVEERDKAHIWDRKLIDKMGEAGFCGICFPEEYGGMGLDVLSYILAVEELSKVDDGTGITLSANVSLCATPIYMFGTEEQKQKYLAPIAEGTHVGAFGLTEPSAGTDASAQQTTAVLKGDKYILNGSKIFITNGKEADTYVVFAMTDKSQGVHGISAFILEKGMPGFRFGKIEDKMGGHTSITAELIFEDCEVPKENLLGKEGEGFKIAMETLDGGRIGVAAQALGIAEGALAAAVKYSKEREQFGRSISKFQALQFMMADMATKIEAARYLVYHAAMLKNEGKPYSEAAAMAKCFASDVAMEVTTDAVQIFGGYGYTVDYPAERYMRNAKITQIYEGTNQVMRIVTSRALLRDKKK
Description: static titration, double-beam UV-visible difference absorbance at […] nm. The format is binding.

Usually Kd stands for a measure of binding affinity in units of concentration.

Regarding `NC(=O)C1=CN([C@@H]2O[C@H](COP(=O)(O)OP(=O)(O)OC[C@H]3O[C@@H](n4cnc5c(N)ncnc54)[C@H](O)[C@@H]3O)[C@@H](O)[C@H]2O)C=CC1` [NADH], the “anaerobic stopped-flow, beta-FAD reduction and charge-transfer complex at 650 nm” value in experiment [1] is given as “mixing EtfAB with a stoichiometric amount NADH resulted in a rapid reduction of β-FAD”. As for `C/C=C/C(=O)SCCNC(=O)CCNC(=O)[C@H](O)C(C)(C)COP(=O)(O)OP(=O)(O)OC[C@H]1O[C@@H](n2cnc3c(N)ncnc32)[C@H](O)[C@@H]1OP(=O)(O)O` [crotonyl-CoA], the affinity in experiment [2], expressed as Kd, was 95 ± 6 µM.
